The text below walks through data of ChEMBL document CHEMBL5136987, “Redesigning of the cap conformation and symmetry of the diphenylethyne core to yield highly potent pan-genotypic NS5A inhibitors with high potency and high resistance barrier” (Eur J Med Chem, 2022).

For orientation: pEC50 means the negative decadic logarithm of the EC50, by convention in mol/L. As usually defined, the CC50 is the concentration that lowers cell viability or growth by half. By half-life is commonly meant the time needed for the level to fall by half in the phase considered. What is called microsomal CLint is the capacity of the preparation to metabolise the compound, expressed as a volume cleared per time.

pEC50: −log10 of the molar value. Calls of active or inactive are those of the source.

One data set concerns Hepatitis C virus. Nature of the data set: Antiviral activity against HCV GT-1b Con1 in human Huh-5-2 cells carrying HCV subgenomic replicon assessed as reduction of viral replication measured after 72 hrs by Firefly luciferase reporter gene assay. In kind it is functional, organism-based, Hepacivirus hominis. Particulars: subtype 1b Con1, Huh-5-2, 72 h. (In general: Replicon systems follow genome replication, usually without infectious particles.)
For `COC(=O)N[C@H](C(=O)N1CCC[C@H]1C(=O)Nc1cccc(C#Cc2cccc(NC(=O)[C@@H]3CCCN3C(=O)[C@H](NC(=O)OC)c3ccccc3)c2)c1)C(C)C`, the pEC50 was 11.48.
With `COC(=O)N[C@@H](C(=O)N1CCC[C@H]1C(=O)Nc1ccc(C#Cc2ccc(NC(=O)[C@@H]3CCCN3C(=O)[C@H](NC(=O)OC)c3ccccc3)cc2)cc1)c1ccccc1`, the pEC50 was 11.59.
With `CC(C)[C@H](NC(=O)OCc1ccccc1)C(=O)N1CCC[C@H]1C(=O)Nc1cccc(C#Cc2cccc(NC(=O)[C@@H]3CCCN3C(=O)[C@@H](NC(=O)OCc3ccccc3)C(C)C)c2)c1`, the pEC50 is 6.00.
As to `COC(=O)N[C@@H](C(=O)N1CCC[C@H]1C(=O)Nc1cccc(C#Cc2cccc(NC(=O)[C@@H]3CCCN3C(=O)[C@H](NC(=O)OC)c3ccccc3)c2)c1)c1ccccc1`, the negative-log EC50 (pEC50) was 11.91.

System in another data set: not listed separately
In words: Cytotoxicity against human Huh-5-2 cells carrying HCV subgenomic replicon assessed as decrease in intracellular ATP level measured after 72 hrs by Glo-max luminescence based assay. The data set is classed as toxicity, cell-based.
Conditions: not given
Turning to `COC(=O)N[C@H](C(=O)N1CCC[C@H]1C(=O)Nc1cccc(C#Cc2cccc(NC(=O)[C@@H]3CCCN3C(=O)[C@H](NC(=O)OC)c3ccccc3)c2)c1)C(C)C`, the CC50 at 72 h came out at 33600 nM.
As to `COC(=O)N[C@@H](C(=O)N1CCC[C@H]1C(=O)Nc1ccc(C#Cc2ccc(NC(=O)[C@@H]3CCCN3C(=O)[C@H](NC(=O)OC)c3ccccc3)cc2)cc1)c1ccccc1`, the CC50 at 72 h was 28200 nM.
On the same count and under the same terms, then `CC(C)[C@H](NC(=O)OCc1ccccc1)C(=O)N1CCC[C@H]1C(=O)Nc1cccc(C#Cc2cccc(NC(=O)[C@@H]3CCCN3C(=O)[C@@H](NC(=O)OCc3ccccc3)C(C)C)c2)c1`, with above 1000 nM; and `COC(=O)N[C@@H](C(=O)N1CCC[C@H]1C(=O)Nc1cccc(C#Cc2cccc(NC(=O)[C@@H]3CCCN3C(=O)[C@H](NC(=O)OC)c3ccccc3)c2)c1)c1ccccc1`, with 43200 nM.

In another data set the test system is Hepatitis C virus. Nature of the data set: Antiviral activity against HCV 3a S52 in human Huh7.5 cells carrying HCV subgenomic replicons assessed as inhibition of viral replication measured after 72 hrs by Firefly luciferase reporter gene assay. The data set is classed as functional, organism-based, Hepacivirus hominis. Particulars: subtype 3a S52, Huh7.5, 72 h.
For `COC(=O)N[C@H](C(=O)N1CCC[C@H]1c1ncc(-c2ccc(-c3ccc(-c4cnc([C@@H]5CCCN5C(=O)[C@@H](NC(=O)OC)C(C)C)[nH]4)cc3)cc2)[nH]1)C(C)C` [DACLATASVIR], the pEC50 is 8.08.
Consider `COC(=O)N[C@@H](C(=O)N1CCC[C@H]1C(=O)Nc1ccc(C#Cc2ccc(NC(=O)[C@@H]3CCCN3C(=O)[C@H](NC(=O)OC)c3ccccc3)cc2)cc1)c1ccccc1`, for which the pEC50 is 9.50.
As for `COC(=O)N[C@@H](C(=O)N1CCC[C@H]1C(=O)Nc1cccc(C#Cc2cccc(NC(=O)[C@@H]3CCCN3C(=O)[C@H](NC(=O)OC)c3ccccc3)c2)c1)c1ccccc1`, the pEC50 is 10.25.

A further data set deals with Hepatitis C virus. Nature of the data set: Antiviral activity against full length HCV GT-1a H77S.3 in human Huh-7-Lunet cells carrying HCV subgenomic replicon assessed as inhibition of viral replication measured after 72 hrs by Firefly luciferase reporter gene assay. The data set is classed as functional, organism-based, Hepacivirus hominis. Particulars: genotype 1a H77S.3, Huh-7, 72 h.
`COC(=O)N[C@H](C(=O)N1CCC[C@H]1c1ncc(-c2ccc(-c3ccc(-c4cnc([C@@H]5CCCN5C(=O)[C@@H](NC(=O)OC)C(C)C)[nH]4)cc3)cc2)[nH]1)C(C)C` [DACLATASVIR]: the pEC50 was 9.87.
Regarding `COC(=O)N[C@@H](C(=O)N1CCC[C@H]1C(=O)Nc1cccc(C#Cc2cccc(NC(=O)[C@@H]3CCCN3C(=O)[C@H](NC(=O)OC)c3ccccc3)c2)c1)c1ccccc1`, the pEC50 is 10.59.

Another data set deals with Hepatitis C virus. In words: Antiviral activity against HCV 2a JFH1 in human Huh-7 cells carrying HCV subgenomic replicon assessed as inhibition of viral replication measured after 72 hrs by Firefly luciferase reporter gene assay. The data set is classed as functional, cell-based. Particulars: 2a JFH1, Huh-7, 72 h.
As for `COC(=O)N[C@H](C(=O)N1CCC[C@H]1c1ncc(-c2ccc(-c3ccc(-c4cnc([C@@H]5CCCN5C(=O)[C@@H](NC(=O)OC)C(C)C)[nH]4)cc3)cc2)[nH]1)C(C)C` [DACLATASVIR], the pEC50 is 10.24.
Consider `COC(=O)N[C@@H](C(=O)N1CCC[C@H]1C(=O)Nc1ccc(C#Cc2ccc(NC(=O)[C@@H]3CCCN3C(=O)[C@H](NC(=O)OC)c3ccccc3)cc2)cc1)c1ccccc1`, for which the pEC50 is 9.83.
Take `COC(=O)N[C@@H](C(=O)N1CCC[C@H]1C(=O)Nc1cccc(C#Cc2cccc(NC(=O)[C@@H]3CCCN3C(=O)[C@H](NC(=O)OC)c3ccccc3)c2)c1)c1ccccc1`: the pEC50 was 9.91.

For a further data set, the system named is Hepatitis C virus. Nature of the data set: Antiviral activity against HCV 4a ED43 in human Huh7.5 cells carrying HCV subgenomic replicon assessed as inhibition of viral replication measured after 72 hrs by Firefly luciferase reporter gene assay. The following applies: subtype 4a ED43, Huh7.5, 72 h. In kind it is functional, organism-based, Hepacivirus hominis.
For the molecule `COC(=O)N[C@H](C(=O)N1CCC[C@H]1c1ncc(-c2ccc(-c3ccc(-c4cnc([C@@H]5CCCN5C(=O)[C@@H](NC(=O)OC)C(C)C)[nH]4)cc3)cc2)[nH]1)C(C)C` [DACLATASVIR], the pEC50 is 10.67.
Regarding `COC(=O)N[C@@H](C(=O)N1CCC[C@H]1C(=O)Nc1ccc(C#Cc2ccc(NC(=O)[C@@H]3CCCN3C(=O)[C@H](NC(=O)OC)c3ccccc3)cc2)cc1)c1ccccc1`, the pEC50 is 9.71.
The same measure, in the same setting: the figure for `COC(=O)N[C@@H](C(=O)N1CCC[C@H]1C(=O)Nc1cccc(C#Cc2cccc(NC(=O)[C@@H]3CCCN3C(=O)[C@H](NC(=O)OC)c3ccccc3)c2)c1)c1ccccc1` is 10.79.

A further data set concerns Hepatitis C virus. Nature of the data set: Antiviral activity against HCV GT-1b Con1 in human Huh-5-2 cells carrying HCV subgenomic replicon assessed as drug resistance upto 100X EC50 and measured after 30 passages in presence of G418 by NGS analysis. Particulars: subtype 1b Con1, Huh-5-2. In kind it is functional, organism-based, Hepacivirus hominis.
Consider `COC(=O)N[C@H](C(=O)N1CCC[C@H]1c1ncc(-c2ccc(-c3ccc(-c4cnc([C@@H]5CCCN5C(=O)[C@@H](NC(=O)OC)C(C)C)[nH]4)cc3)cc2)[nH]1)C(C)C` [DACLATASVIR], for which the pEC50 is 10.59.
In the case of `COC(=O)N[C@@H](C(=O)N1CCC[C@H]1C(=O)Nc1cccc(C#Cc2cccc(NC(=O)[C@@H]3CCCN3C(=O)[C@H](NC(=O)OC)c3ccccc3)c2)c1)c1ccccc1`, the pEC50 was 11.58.

In another data set the test system is Hepatitis C virus. Nature of the data set: Antiviral activity against HCV GT-1b Con1 in human Huh-5-2 cells carrying HCV subgenomic replicon assessed as drug resistance upto 100X EC50 and measured after 15 weeks in presence of G418 by NGS analysis. Particulars: subtype 1b Con1, Huh-5-2. In kind it is functional, organism-based, Hepacivirus hominis.
`COC(=O)N[C@H](C(=O)N1CCC[C@H]1c1ncc(-c2ccc(-c3ccc(-c4cnc([C@@H]5CCCN5C(=O)[C@@H](NC(=O)OC)C(C)C)[nH]4)cc3)cc2)[nH]1)C(C)C` [DACLATASVIR]: the pEC50 was 8.47.
Still for that read-out and setting: then `COC(=O)N[C@@H](C(=O)N1CCC[C@H]1C(=O)Nc1cccc(C#Cc2cccc(NC(=O)[C@@H]3CCCN3C(=O)[C@H](NC(=O)OC)c3ccccc3)c2)c1)c1ccccc1`, with 9.77.

System in another data set: not listed separately
Nature of the data set: Selectivity index, ratio of EC50 for antiviral activity against HCV GT-1b Con1 in human Huh-5-2 cells carrying HCV subgenomic replicon assessed as drug resistance measured after 15weeks in presence of G418 by NGS analysis to EC50 for antiviral activity against HCV GT-1b Con1 in human Huh-5-2 cells carrying HCV subgenomic replicon assessed as drug resistance measured after 30 passages in presence of G418. The data set is classed as functional, Hepatitis C virus subtype 1b.
Conditions: not given
For `COC(=O)N[C@H](C(=O)N1CCC[C@H]1c1ncc(-c2ccc(-c3ccc(-c4cnc([C@@H]5CCCN5C(=O)[C@@H](NC(=O)OC)C(C)C)[nH]4)cc3)cc2)[nH]1)C(C)C` [DACLATASVIR], the “Ratio EC50” value was 132.
As to `COC(=O)N[C@@H](C(=O)N1CCC[C@H]1C(=O)Nc1cccc(C#Cc2cccc(NC(=O)[C@@H]3CCCN3C(=O)[C@H](NC(=O)OC)c3ccccc3)c2)c1)c1ccccc1`, the “Ratio EC50” value worked out at 64.4.

System in another data set: not listed separately
In words: Metabolic stability in human S9 fraction assessed as half life at 10 mg/ml measured upto 120 mins in presence of NADP […] system by LC-MS/MS analysis. The data set is classed as ADME, subcellular.
Conditions: not given
Take `C[C@]12CC[C@H]3[C@@H](CCC4=CC(=O)CC[C@@]43C)[C@@H]1CC[C@@H]2O` [TESTOSTERONE]: the half-life at 10 mg/ml came to 7.4 min.
As to `COC(=O)N[C@H](C(=O)N1CCC[C@H]1C(=O)Nc1cccc(C#Cc2cccc(NC(=O)[C@@H]3CCCN3C(=O)[C@H](NC(=O)OC)c3ccccc3)c2)c1)C(C)C`, the half-life at 10 mg/ml came to 18.8 min.
For the molecule `COC(=O)N[C@@H](C(=O)N1CCC[C@H]1C(=O)Nc1ccc(C#Cc2ccc(NC(=O)[C@@H]3CCCN3C(=O)[C@H](NC(=O)OC)c3ccccc3)cc2)cc1)c1ccccc1`, the half-life at 10 mg/ml is above 120 min.
Regarding `COC(=O)N[C@@H](C(=O)N1CCC[C@H]1C(=O)Nc1cccc(C#Cc2cccc(NC(=O)[C@@H]3CCCN3C(=O)[C@H](NC(=O)OC)c3ccccc3)c2)c1)c1ccccc1`, the half-life at 10 mg/ml is 20 min.

System in the next data set: not listed separately
In words: Metabolic stability in human S9 fraction assessed as clearance at 10 mg/ml measured upto 120 mins in presence of NADP […] system by LC-MS/MS analysis. The data set is classed as ADME, subcellular.
Conditions: not given
With `COC(=O)N[C@H](C(=O)N1CCC[C@H]1C(=O)Nc1cccc(C#Cc2cccc(NC(=O)[C@@H]3CCCN3C(=O)[C@H](NC(=O)OC)c3ccccc3)c2)c1)C(C)C`, the microsomal CLint worked out at 36.4 µL/min/mg.
The same measure, in the same setting: the figure for `COC(=O)N[C@@H](C(=O)N1CCC[C@H]1C(=O)Nc1ccc(C#Cc2ccc(NC(=O)[C@@H]3CCCN3C(=O)[C@H](NC(=O)OC)c3ccccc3)cc2)cc1)c1ccccc1` is below 5.8 µL/min/mg.
With `COC(=O)N[C@@H](C(=O)N1CCC[C@H]1C(=O)Nc1cccc(C#Cc2cccc(NC(=O)[C@@H]3CCCN3C(=O)[C@H](NC(=O)OC)c3ccccc3)c2)c1)c1ccccc1`, the microsomal CLint stood at 35.6 µL/min/mg.

The test system of the next data set is Hepatitis C virus. In words: Antiviral activity against HCV GT-1b Con1 infected in human Huh-5-2 cells carrying HCV subgenomic replicon assessed as reduction of viral replication by RT-qPCR analysis. The data set is classed as functional, organism-based, Hepacivirus hominis. Particulars: subtype 1b Con1, Huh-5-2.
Consider `COC(=O)N[C@@H](C(=O)N1CCC[C@H]1C(=O)Nc1cccc(C#Cc2cccc(NC(=O)[C@@H]3CCCN3C(=O)[C@H](NC(=O)OC)c3ccccc3)c2)c1)c1ccccc1`, for which the pEC50 is 11.81.

For a further data set, the system named is Hepatitis C virus. Nature of the data set: Antiviral activity against HCV GT-1b Con1 infected in human Huh-5-2 cells carrying HCV subgenomic replicon assessed as reduction in NS5A protein level incubated at 3.3 to 30 pM by PI staining based indirect immunofluorescence assay. In kind it is functional, organism-based. Particulars: Hepacivirus hominis, subtype 1b Con1, dose 3.3-30 pM.
Take `COC(=O)N[C@@H](C(=O)N1CCC[C@H]1C(=O)Nc1cccc(C#Cc2cccc(NC(=O)[C@@H]3CCCN3C(=O)[C@H](NC(=O)OC)c3ccccc3)c2)c1)c1ccccc1`: the result was Active.
